Test results from paper PMC7440915, “Discovery of surrogate agonists for visceral fat Treg cells that modulate metabolic indices in vivo” (eLife, 2020).
Where no end group is shown, it is not given here.

System: vTreg53 TCR (transduced Jurkat T cells)
Assay: CD69/CD25 up-regulation on vTreg53 TCR transduced Jurkat T cells with peptide-pulsed K562-A^b cells
Type: cell-based, Homo sapiens (cells); murine TCR
Conditions: for CD25 Emax, fold increase over Fat15: CD25, peptide titration, Figure 3E; for CD69 Emax, fold increase over Fat15: CD69, peptide titration, Figure 3D; for EC50: peptide titration, CD69 (Figure 3D), overnight, mean ± SD from n = 2 biological replicates, 1 representative of 3 experiments
Method: Figure 3. Identification of robust vTreg53 TCR agonists. Single-point mutants based on the Fat7 (A) or Fat15 (B) peptides were used to stimulate Fat-TCR transduced Jurkat T cells. Data shown are mean fluorescence intensity for CD69 up-regulation following overnight stimulation with the indicated peptides at 100 µM. (C) Potent SPs based on Fat15. Single-residue mutations from the Fat15 are shown in red. Anchor positions are shown in grey and potential TCR-facing positions are shown in green. A peptide titration of single- and double-point mutants from the Fat15 SP show up to ~4- (D; CD69) or ~8 fold (E; CD25) increase in Emax. (F) Surface plasmon resonance for Fat7, Fat15, Fat1562 and Fat2564 was used to determine the pMHC/Fat TCR affinity. All biotinylated pMHC were purified by SEC and immobilized in a streptavidin-coated SPR sensor chip from 200 up to 600 RU. Data are mean ± SD from n = 2 (A, D, E) or 3 (B) biological replicates from 1 representative of 3 independent experiments. Data shown in (F) is representative of 2 independent experiments. Figure 3—figure supplement 1. In vitro peptide stimulation of the vTreg53 TCR cells. (A) Expression of wild-type Ab MHC in stably transduced K562 cells. (B) Expression of vTreg53 TCR in stably transduced Jurkat T cells (TCRαβ-/-). (C) Fraction of CD25+/CD69+ cells following overnight stimulation with Fat mimotopes at the indicated concentrations. (D) Peptide-A^b - streptavidin PE (pAb -SAPE) titration of vTreg53 transduced Jurkat T cells. Cells were stained with 250 nM of pA^b-SAPE tetramer for 1 hr.
Cell lines were kept in a humidified incubator at 37°C with 5% CO2 unless otherwise denoted. Jurkat T cells (derived from acute T cell leukemia ATCC TIB-152) and K562 cells (ATCC CCL-243) were cultured in RPMI supplemented with 2 mM glutamax (Invitrogen), 10% FBS (Sigma),10 mM HEPES pH 8.0 (ThermoFisher), 1 mM Sodium Pyruvate (Gibco) and 50 U/ml penicillin and streptomycin (ThermoFisher). Validation of T cell lines was performed by staining with known markers pre- and post- transfection or transduction. HEK293T (Lenti-X; Takara Bio USA, #632180) cells (female derived kidney cell line) were grown in DMEM complete media (ThermoFisher) supplemented with 10% FBS, 2 mM L-glutamine, and 50 U/ml of penicillin and streptomycin. Cells were tested for mycoplasma contamination using the MycoAlert Mycoplasma Detection kit (Lonza) and found to be mycoplasma-negative. For peptide assays, Jurkat T cells were rested overnight or for 2–3 hr in fresh RPMI complete. Cells were co-cultured for 16 to 48 hr with surrogate APCs: K562 transduced with A^b. After overnight incubation, cells were washed in MACS buffer and stained with anti-TCR, A^b, CD69 and CD25. EBY100 yeast cells were cultured in sterile filtered standard YPD (Bacto Peptone, glucose and yeast extract). Transformed yeast were grown in SDCAA (yeast nitrogen base, casamino acids -ADE, -URA, -TRP, D-glucose and buffered to pH 4.5 using sodium citrate and citric acid monohydrate) and induced in SGCAA where galactose replaces D-glucose. EBY100 cells are grown at 30°C when cultured in SDCAA, or at 20°C when cultured in SGCAA at atmospheric CO2 in an orbital shaker set to an agitation speed of 250 rpm.

TMYKNPRPMAATG [Fat1562]
CD25 Emax, fold increase over Fat15: 4.1 fold | CD69 Emax, fold increase over Fat15: ~ 3 fold | EC50: 14.3 µM

TMYKNLRPWAATG [Fat2564]
CD25 Emax, fold increase over Fat15: 8.7 fold | CD69 Emax, fold increase over Fat15: ~5 fold | EC50: 8.9 µM

LMFKGPHAVQAVG [Fat7]
CD69 up-regulation (overnight stimulation, screen at 100 µM): able to up-regulate CD69 expression
